From PubChem BioAssay AID2060327 (Molecular Pharmacology Branch, DTP, NCI, 2025)
pIC50: −log10 of the molar value. Where “and” joins values, the source holds several entries; their conditions need not be identical. Identical values can stand only once.

Test system: PC-3 multi-cell spheroids, viability
Assay: Anticancer human tumor PC-3 cell line growth inhibition [IpAb];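 also: spheroids exposed to compounds for 7 days before readout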;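 as to viability, T/C: 100% = DMSO vehicle control wells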
Conditions: for viability, T/C: stronger effect = lower value
Text: Combinatorial screen of targeted agents with ipatasertib and abemaciclib in multi-cell type tumor spheroids
A high-throughput screen of multi-cell type tumor spheroids was designed to identify active combinations of targeted small molecules and ipatasertib or abemaciclib. Complex spheroids include a stromal component modeled by human endothelial cells (HUVEC) and fibroblasts modeled by human mesenchymal stem cells (MSCs). The concentration ranges selected for each drug and investigational agent were based upon clinically achievable concentrations if the clinical Cmax of the agent was known.
Compounds. The drugs and investigational agents: ipatasertib (NSC767898), abemaciclib(NSC768073), selumetinib (NSC741078), trametinib (758246), adavosertib (NSC754352), everolimus (NSC733504), sapanisertib (NSC764658), vemurafenib (NSC761431), venetoclax (NSC766270), copanlisib (NSC809693), apelisib (NSC765974), palbociblib (NSC758247), vemurafenib (NSC761431), dabrafenib (NSC764134), ravoxertinib (NSC781343), BMS-387032 (NSC767048), sotorasib (NSC818433), talazoparib (NSC767125) and afursertib (NSC778305), were obtained from the National Cancer Institute (NCI) Developmental Therapeutics Program Chemical Repository. The FDA-approved anticancer drug set is available from the NCI Developmental Therapeutics Program. […] The stock solutions were prepared in dimethyl sulfoxide (DMSO, Sigma-Aldrich, St. Louis, MO, cat. D2650) at 800-fold the tested concentration and stored at -70 degrees C prior to their use. All drugs and investigational agents were tested over a range starting from a high concentration at or near the clinical Cmax and decreasing in half-log increments. If the clinical Cmax for an agent had not been determined, the highest concentration tested was 10 microM.
NCI60 Cell Culture. NCI60 cell lines were obtained from the NCI Developmental Therapeutics Program Tumor Repository. For each lot of cells, the Repository performed Applied Biosystems AmpFLSTR Identifiler testing with PCR amplification to confirm consistency with the published Identifier STR profile for each cell line. Cells were kept in continuous culture for no more than 20 passages. The optimal seeding densities for each of the cell lines at each time point assessed were determined prior to performing the concentration response studies. Briefly, the NCI60 human tumor lines were grown as monolayers in RPMI 1640 medium supplemented with 10% FBS and 2 mmol/L L-glutamine.
An additional 9 lines were from the NCI60 cell line panel including MDA-MB-231 breast carcinoma, MDA-MB-468 breast carcinoma, MCF7 breast carcinoma, Hs578T breast carcinoma, MALME-3M melanoma, SK-MEL-2 melanoma, SK-OV-3 ovarian carcinoma, DU-145 prostate carcinoma, PC-3 prostate carcinoma, all cell lines along with major genetic alterations are listed on Table 2. Pooled donor human umbilical vein endothelial cells (HUVEC, Lonza, cat. CC-2519) and human mesenchymal stem cells (hMSC, Lonza, cat. PT-2501) were purchased from Lonza (Walkersville, MD).
PDMR cell lines were grown in complete medium (DC medium): Dulbecco's modified Eagle's medium (DMEM)/F12 supplemented with 5% fetal bovine serum (FBS), 2 mM L-glutamine, 100 U/mL penicillin and 100 µg/ml streptomycin, 0.4 µg/ml hydrocortisone, 10 ng/ml epidermal growth factor (EGF) recombinant human protein, 24 µg/mL adenine, and 0.1 mg/mL primocin. During culture from frozen stock vials, PDMR cells were cultured in the same medium containing 10 µM Y-27632 (see Table 3). The PDCs were cultured in complete DMEM/F12 media without 10 microM Y-27632 dihydrochloride for at least two passages prior to the screen. The pooled donor HUVEC and hMSC were cultured in endothelial cell growth medium 2 (PromoCell, Heidelberg, Germany, cat. C-22011) and mesenchymal stem cell growth medium 2 (PromoCell, cat. C-28009), respectively. For all experiments, HUVEC and hMSC were used at passages </=5.
[…]

**Q.** With COc1c(OCCCN2CCOCC2)ccc2c3n(c(=NC(=O)c4cnc(N)nc4)nc12)CCN3 + CC(C)NCC(C(=O)N1CCN(c2ncnc3c2C(C)CC3O)CC1)c1ccc(Cl)cc1 as the compound, how does the pIC50 (curve of first compound, second compound 0.1 µM) read?
**A.** 7.67

**Q.** What about the pIC50 (curve of first compound, second compound 0.316 µM) of the same compound?
**A.** > 8.50

**Q.** What about the pIC50 (curve of first compound, second compound 1 µM) of the same compound?
**A.** > 8.50

**Q.** And the pIC50 (curve of first compound, second compound 3.16 µM)?
**A.** > 8.50

**Q.** And the pIC50 (curve of first compound, second compound 10 µM)?
**A.** > 8.50

**Q.** What about the viability, T/C (second compound 0.1 µM, first compound 0.00316 µM) of the same compound?
**A.** 81.5%

**Q.** And the viability, T/C (second compound 0.1 µM, first compound 0.01 µM)?
**A.** 59.7%

**Q.** What about the viability, T/C (second compound 0.1 µM, first compound 0.0316 µM) of the same compound?
**A.** 48.1%

**Q.** And the viability, T/C (second compound 0.1 µM, first compound 0.1 µM)?
**A.** 18%

**Q.** What about the viability, T/C (second compound 0.1 µM, first compound 0.316 µM) of the same compound?
**A.** 6.89%

**Q.** And the viability, T/C (second compound 0.1 µM, first compound 1 µM)?
**A.** 4.7%

**Q.** And the viability, T/C (second compound 0.316 µM, first compound 0.00316 µM)?
**A.** 45.1%

**Q.** And the viability, T/C (second compound 0.316 µM, first compound 0.01 µM)?
**A.** 40%

**Q.** And the viability, T/C (second compound 0.316 µM, first compound 0.0316 µM)?
**A.** 29.5%

**Q.** And the viability, T/C (second compound 0.316 µM, first compound 0.1 µM)?
**A.** 12.2%

**Q.** What about the viability, T/C (second compound 0.316 µM, first compound 0.316 µM) of the same compound?
**A.** 5.71%

**Q.** What about the viability, T/C (second compound 0.316 µM, first compound 1 µM) of the same compound?
**A.** 4.51%

**Q.** What about the viability, T/C (second compound 1 µM, first compound 0.00316 µM) of the same compound?
**A.** 24.3%

**Q.** And the viability, T/C (second compound 1 µM, first compound 0.01 µM)?
**A.** 18.7%

**Q.** And the viability, T/C (second compound 1 µM, first compound 0.0316 µM)?
**A.** 14%

**Q.** And the viability, T/C (second compound 1 µM, first compound 0.1 µM)?
**A.** 8.53%

**Q.** And the viability, T/C (second compound 1 µM, first compound 0.316 µM)?
**A.** 5.57%

**Q.** And the viability, T/C (second compound 1 µM, first compound 1 µM)?
**A.** 4.27%

**Q.** What about the viability, T/C (second compound 3.16 µM, first compound 0.00316 µM) of the same compound?
**A.** 15.1%

**Q.** What about the viability, T/C (second compound 3.16 µM, first compound 0.01 µM) of the same compound?
**A.** 12.5%

**Q.** And the viability, T/C (second compound 3.16 µM, first compound 0.0316 µM)?
**A.** 11.1%

**Q.** What about the viability, T/C (second compound 3.16 µM, first compound 0.1 µM) of the same compound?
**A.** 7.88%

**Q.** What about the viability, T/C (second compound 3.16 µM, first compound 0.316 µM) of the same compound?
**A.** 4.58%

**Q.** What about the viability, T/C (second compound 3.16 µM, first compound 1 µM) of the same compound?
**A.** 3.91%

**Q.** And the viability, T/C (second compound 10 µM, first compound 0.00316 µM)?
**A.** 12.8%

**Q.** What about the viability, T/C (second compound 10 µM, first compound 0.01 µM) of the same compound?
**A.** 11.5%

**Q.** What about the viability, T/C (second compound 10 µM, first compound 0.0316 µM) of the same compound?
**A.** 10.3%

**Q.** What about the viability, T/C (second compound 10 µM, first compound 0.1 µM) of the same compound?
**A.** 6.13%

**Q.** What about the viability, T/C (second compound 10 µM, first compound 0.316 µM) of the same compound?
**A.** 4.33%

**Q.** What about the viability, T/C (second compound 10 µM, first compound 1 µM) of the same compound?
**A.** 4.03%

**Q.** Cc1nc(NC(=O)N2CCCC2C(N)=O)sc1-c1ccnc(C(C)(C)C(F)(F)F)c1 (stereo unspecified) was tested. Which viability, T/C (compound 0.0316 µM) did it give?
**A.** 82.8% and 73.3%

**Q.** What about the viability, T/C (compound 0.1 µM) of the same compound?
**A.** 78.5% and 59.6%

**Q.** And the viability, T/C (compound 0.316 µM)?
**A.** 50.1% and 53.2%

**Q.** And the viability, T/C (compound 1 µM)?
**A.** 49.3% and 48%

**Q.** What about the viability, T/C (compound 3.16 µM) of the same compound?
**A.** 44% and 47.7%

**Q.** What about the viability, T/C (compound 10 µM) of the same compound?
**A.** 15.2% and 14.2%

**Q.** And the pIC50 (curve of compound)?
**A.** 6.07 and 5.97

**Q.** Which viability, T/C (compound 0.0316 µM) does the source give for CCCS(=O)(=O)Nc1ccc(F)c(C(=O)c2c[nH]c3ncc(-c4ccc(Cl)cc4)cc23)c1F here?
**A.** 118% and 111%

**Q.** What about the viability, T/C (compound 0.1 µM) of the same compound?
**A.** 106% and 99.5%

**Q.** What about the viability, T/C (compound 0.316 µM) of the same compound?
**A.** 114% and 111%

**Q.** And the viability, T/C (compound 1 µM)?
**A.** 111% and 101%

**Q.** And the viability, T/C (compound 3.16 µM)?
**A.** 118% and 112%

**Q.** What about the viability, T/C (compound 10 µM) of the same compound?
**A.** 72.7% and 67.1%

**Q.** What about the pIC50 (curve of compound) of the same compound?
**A.** < 5.00

**Q.** For COc1c(OCCCN2CCOCC2)ccc2c3n(c(=NC(=O)c4cnc(N)nc4)nc12)CCN3, which viability, T/C (compound 0.00316 µM) is on record?
**A.** 97.6% and 101%

**Q.** And the viability, T/C (compound 0.01 µM)?
**A.** 79% and 99.4%

**Q.** What about the viability, T/C (compound 0.0316 µM) of the same compound?
**A.** 47.7% and 104%

**Q.** And the viability, T/C (compound 0.1 µM)?
**A.** 21.7% and 69.3%

**Q.** And the viability, T/C (compound 0.316 µM)?
**A.** 6.8% and 11.9%

**Q.** And the viability, T/C (compound 1 µM)?
**A.** 5.07% and 9.47%

**Q.** What about the pIC50 (curve of compound) of the same compound?
**A.** 7.53 and 6.84
